Data from PMC10945555, “Improving Activity of New Arylurea Agents against Multidrug-Resistant and Biofilm-Producing Staphylococcus epidermidis” (ACS Medicinal Chemistry Letters, 2024).
In brackets after ≈: the same amount, converted by molar mass. Where two headings read alike, the source gives them in different places.

Experiments:
[1] = system: clinical MDR Staphylococcus epidermidis isolates; assay: MIC, broth microdilution, 81 clinical MDR strains; assay type: cell-based
Outline: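 MICs were determined by twofold broth microdilution in cation-adjusted Mueller-Hinton II broth per EUCAST, over 50–0.1 µg/mL, in duplicate. Compounds were tested as free bases dissolved in DMSO; MIC50 and MIC90 were derived across the 81 clinical MDR S. epidermidis strains.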

[2] = system: horse red blood cells; assay: Hemolytic activity assay
Protocol: 2.3.3 Hemolytic activity assay
The hemolytic properties of tested compound were evaluated according to previously reported procedure.6 Defibrinated horse red blood cells purchased from Thermo Fisher Scientific (Germany) were washed with PBS (3000 rpm, 10 min at 4 °C) for three times followed by PBS dilution to obtain a 8% suspension. Then, 100 μL of the resulting suspensions […]
were treated with 100 μL of tested compound at the final concentration of 200 μM, and incubated at 37 °C for 1 h. Triton X-100 (2%) and PBS were used as positive and negative controls, respectively. After centrifugation at 3000 rpm for 3 min, 100 μL of the supernatants were transferred to a 96 well microtiter plate and the hemoglobin release was determined in a SpectraMax iD3 reader (Molecular Devices) by absorption at 540 nm. […]

## O=C(Nc1cccc(Cl)c1)NC1CCN(CCC(Oc2ccc(C(F)(F)F)cc2)c2cccs2)CC1 (stereo not shown) [Compound 25]
[1]; Staphylococcus epidermidis, clinical strain 42 (Table S5), read-out: MIC
  MIC: 0.8 µg/mL (≈ 1.49 µM)
[1]; Staphylococcus epidermidis, clinical strain 43 (Table S2), read-out: MIC
  MIC: 1.6 µg/mL (≈ 2.97 µM)
[1]; Staphylococcus epidermidis, clinical strain 43 (Table S5), read-out: MIC
  MIC: 1.6 µg/mL (≈ 2.97 µM)
[1]; Staphylococcus epidermidis, clinical strain 44 (Table S2), read-out: MIC
  MIC: 1.6 µg/mL (≈ 2.97 µM)
[1]; Staphylococcus epidermidis, clinical strain 44 (Table S5), read-out: MIC
  MIC: 1.6 µg/mL (≈ 2.97 µM)
[1]; Staphylococcus epidermidis, clinical strain 45 (Table S2), read-out: MIC
  MIC: 1.6 µg/mL (≈ 2.97 µM)
[1]; Staphylococcus epidermidis, clinical strain 45 (Table S5), read-out: MIC
  MIC: 1.6 µg/mL (≈ 2.97 µM)
[1]; Staphylococcus epidermidis, clinical strain 46 (Table S2), read-out: MIC
  MIC: 1.6 µg/mL (≈ 2.97 µM)
[1]; Staphylococcus epidermidis, clinical strain 46 (Table S5), read-out: MIC
  MIC: 0.8 µg/mL (≈ 1.49 µM)
[1]; Staphylococcus epidermidis, clinical strain 47 (Table S2), read-out: MIC
  MIC: 1.6 µg/mL (≈ 2.97 µM)
[1]; Staphylococcus epidermidis, clinical strain 47 (Table S5), read-out: MIC
  MIC: 1.6 µg/mL (≈ 2.97 µM)
[1]; Staphylococcus epidermidis, clinical strain 48 (Table S2), read-out: MIC
  MIC: 1.6 µg/mL (≈ 2.97 µM)
[1]; Staphylococcus epidermidis, clinical strain 48 (Table S5), read-out: MIC
  MIC: 1.6 µg/mL (≈ 2.97 µM)
[1]; Staphylococcus epidermidis, clinical strain 49 (Table S2), read-out: MIC
  MIC: 0.1 µg/mL (≈ 0.186 µM)
[1]; Staphylococcus epidermidis, clinical strain 49 (Table S5), read-out: MIC
  MIC: 0.1 µg/mL (≈ 0.186 µM)
[1]; Staphylococcus epidermidis, clinical strain 50 (Table S2), read-out: MIC
  MIC: 3.12 µg/mL (≈ 5.81 µM)
[1]; Staphylococcus epidermidis, clinical strain 50 (Table S5), read-out: MIC
  MIC: 3.12 µg/mL (≈ 5.81 µM)
[1]; Staphylococcus epidermidis, clinical strain 51 (Table S2), read-out: MIC
  MIC: 3.12 µg/mL (≈ 5.81 µM)
[1]; Staphylococcus epidermidis, clinical strain 51 (Table S5), read-out: MIC
  MIC: 3.12 µg/mL (≈ 5.81 µM)
[1]; Staphylococcus epidermidis, clinical strain 52 (Table S2), read-out: MIC
  MIC: 3.12 µg/mL (≈ 5.81 µM)
[1]; Staphylococcus epidermidis, clinical strain 52 (Table S5), read-out: MIC
  MIC: 3.12 µg/mL (≈ 5.81 µM)
[1]; Staphylococcus epidermidis, clinical strain 53 (Table S2), read-out: MIC
  MIC: 3.12 µg/mL (≈ 5.81 µM)
[1]; Staphylococcus epidermidis, clinical strain 53 (Table S5), read-out: MIC
  MIC: 3.12 µg/mL (≈ 5.81 µM)
[1]; Staphylococcus epidermidis, clinical strain 54 (Table S2), read-out: MIC
  MIC: 0.8 µg/mL (≈ 1.49 µM)
[1]; Staphylococcus epidermidis, clinical strain 54 (Table S5), read-out: MIC
  MIC: 0.8 µg/mL (≈ 1.49 µM)
[1]; Staphylococcus epidermidis, clinical strain 55 (Table S2), read-out: MIC
  MIC: 3.12 µg/mL (≈ 5.81 µM)
[1]; Staphylococcus epidermidis, clinical strain 55 (Table S5), read-out: MIC
  MIC: 3.12 µg/mL (≈ 5.81 µM)
[1]; Staphylococcus epidermidis, clinical strain 56 (Table S2), read-out: MIC
  MIC: 1.6 µg/mL (≈ 2.97 µM)
[1]; Staphylococcus epidermidis, clinical strain 56 (Table S5), read-out: MIC
  MIC: 1.6 µg/mL (≈ 2.97 µM)
[1]; Staphylococcus epidermidis, clinical strain 57 (Table S2), read-out: MIC
  MIC: 3.12 µg/mL (≈ 5.81 µM)
[1]; Staphylococcus epidermidis, clinical strain 57 (Table S5), read-out: MIC
  MIC: 3.12 µg/mL (≈ 5.81 µM)
[1]; Staphylococcus epidermidis, clinical strain 58 (Table S2), read-out: MIC
  MIC: 0.8 µg/mL (≈ 1.49 µM)
[1]; Staphylococcus epidermidis, clinical strain 58 (Table S5), read-out: MIC
  MIC: 0.8 µg/mL (≈ 1.49 µM)
[1]; Staphylococcus epidermidis, clinical strain 59 (Table S2), read-out: MIC
  MIC: 3.12 µg/mL (≈ 5.81 µM)
[1]; Staphylococcus epidermidis, clinical strain 59 (Table S5), read-out: MIC
  MIC: 3.12 µg/mL (≈ 5.81 µM)
[1]; Staphylococcus epidermidis, clinical strain 60 (Table S2), read-out: MIC
  MIC: 3.12 µg/mL (≈ 5.81 µM)
[1]; Staphylococcus epidermidis, clinical strain 60 (Table S5), read-out: MIC
  MIC: 3.12 µg/mL (≈ 5.81 µM)
[1]; Staphylococcus epidermidis, clinical strain 61 (Table S2), read-out: MIC
  MIC: 1.6 µg/mL (≈ 2.97 µM)
[1]; Staphylococcus epidermidis, clinical strain 61 (Table S5), read-out: MIC
  MIC: 1.6 µg/mL (≈ 2.97 µM)
[1]; Staphylococcus epidermidis, clinical strain 62 (Table S2), read-out: MIC
  MIC: 1.6 µg/mL (≈ 2.97 µM)
[1]; Staphylococcus epidermidis, clinical strain 62 (Table S5), read-out: MIC
  MIC: 1.6 µg/mL (≈ 2.97 µM)
[1]; Staphylococcus epidermidis, clinical strain 63 (Table S2), read-out: MIC
  MIC: 1.6 µg/mL (≈ 2.97 µM)
[1]; Staphylococcus epidermidis, clinical strain 63 (Table S5), read-out: MIC
  MIC: 1.6 µg/mL (≈ 2.97 µM)
[1]; Staphylococcus epidermidis, clinical strain 64 (Table S2), read-out: MIC
  MIC: 3.12 µg/mL (≈ 5.81 µM)
[1]; Staphylococcus epidermidis, clinical strain 64 (Table S5), read-out: MIC
  MIC: 3.12 µg/mL (≈ 5.81 µM)
[1]; Staphylococcus epidermidis, clinical strain 65 (Table S2), read-out: MIC
  MIC: 3.12 µg/mL (≈ 5.81 µM)
[1]; Staphylococcus epidermidis, clinical strain 65 (Table S5), read-out: MIC
  MIC: 3.12 µg/mL (≈ 5.81 µM)
[1]; Staphylococcus epidermidis, clinical strain 66 (Table S2), read-out: MIC
  MIC: 1.6 µg/mL (≈ 2.97 µM)
[1]; Staphylococcus epidermidis, clinical strain 66 (Table S5), read-out: MIC
  MIC: 1.6 µg/mL (≈ 2.97 µM)
[1]; Staphylococcus epidermidis, clinical strain 67 (Table S2), read-out: MIC
  MIC: 3.12 µg/mL (≈ 5.81 µM)
[1]; Staphylococcus epidermidis, clinical strain 67 (Table S5), read-out: MIC
  MIC: 3.12 µg/mL (≈ 5.81 µM)
[1]; Staphylococcus epidermidis, clinical strain 68 (Table S2), read-out: MIC
  MIC: 3.12 µg/mL (≈ 5.81 µM)
[1]; Staphylococcus epidermidis, clinical strain 68 (Table S5), read-out: MIC
  MIC: 3.12 µg/mL (≈ 5.81 µM)
[1]; Staphylococcus epidermidis, clinical strain 69 (Table S2), read-out: MIC
  MIC: 1.6 µg/mL (≈ 2.97 µM)
[1]; Staphylococcus epidermidis, clinical strain 69 (Table S5), read-out: MIC
  MIC: 1.6 µg/mL (≈ 2.97 µM)
[1]; Staphylococcus epidermidis, clinical strain 70 (Table S2), read-out: MIC
  MIC: 3.12 µg/mL (≈ 5.81 µM)
[1]; Staphylococcus epidermidis, clinical strain 70 (Table S5), read-out: MIC
  MIC: 3.12 µg/mL (≈ 5.81 µM)
[1]; Staphylococcus epidermidis, clinical strain 71 (Table S2), read-out: MIC
  MIC: 1.6 µg/mL (≈ 2.97 µM)
[1]; Staphylococcus epidermidis, clinical strain 71 (Table S5), read-out: MIC
  MIC: 1.6 µg/mL (≈ 2.97 µM)
[1]; Staphylococcus epidermidis, clinical strain 72 (Table S2), read-out: MIC
  MIC: 3.12 µg/mL (≈ 5.81 µM)
[1]; Staphylococcus epidermidis, clinical strain 72 (Table S5), read-out: MIC
  MIC: 3.12 µg/mL (≈ 5.81 µM)
[1]; Staphylococcus epidermidis, clinical strain 73 (Table S2), read-out: MIC
  MIC: 0.4 µg/mL (≈ 0.743 µM)
[1]; Staphylococcus epidermidis, clinical strain 73 (Table S5), read-out: MIC
  MIC: 0.4 µg/mL (≈ 0.743 µM)
[1]; Staphylococcus epidermidis, clinical strain 74 (Table S2), read-out: MIC
  MIC: 3.12 µg/mL (≈ 5.81 µM)
[1]; Staphylococcus epidermidis, clinical strain 74 (Table S5), read-out: MIC
  MIC: 3.12 µg/mL (≈ 5.81 µM)
[1]; Staphylococcus epidermidis, clinical strain 75 (Table S2), read-out: MIC
  MIC: 3.12 µg/mL (≈ 5.81 µM)
[1]; Staphylococcus epidermidis, clinical strain 75 (Table S5), read-out: MIC
  MIC: 3.12 µg/mL (≈ 5.81 µM)
[1]; Staphylococcus epidermidis, clinical strain 76 (Table S2), read-out: MIC
  MIC: 1.6 µg/mL (≈ 2.97 µM)
[1]; Staphylococcus epidermidis, clinical strain 76 (Table S5), read-out: MIC
  MIC: 1.6 µg/mL (≈ 2.97 µM)
[1]; Staphylococcus epidermidis, clinical strain 77 (Table S2), read-out: MIC
  MIC: 3.12 µg/mL (≈ 5.81 µM)
[1]; Staphylococcus epidermidis, clinical strain 77 (Table S5), read-out: MIC
  MIC: 3.12 µg/mL (≈ 5.81 µM)
[1]; Staphylococcus epidermidis, clinical strain 78 (Table S2), read-out: MIC
  MIC: 1.6 µg/mL (≈ 2.97 µM)
[1]; Staphylococcus epidermidis, clinical strain 78 (Table S5), read-out: MIC
  MIC: 1.6 µg/mL (≈ 2.97 µM)
[1]; Staphylococcus epidermidis, clinical strain 79 (Table S2), read-out: MIC
  MIC: 0.4 µg/mL (≈ 0.743 µM)
[1]; Staphylococcus epidermidis, clinical strain 79 (Table S5), read-out: MIC
  MIC: 0.4 µg/mL (≈ 0.743 µM)
[1]; Staphylococcus epidermidis, clinical strain 80 (Table S2), read-out: MIC
  MIC: 3.12 µg/mL (≈ 5.81 µM)
[1]; Staphylococcus epidermidis, clinical strain 80 (Table S5), read-out: MIC
  MIC: 3.12 µg/mL (≈ 5.81 µM)
[1]; Staphylococcus epidermidis, clinical strain 81 (Table S2), read-out: MIC
  MIC: 0.2 µg/mL (≈ 0.372 µM)
[1]; Staphylococcus epidermidis, clinical strain 81 (Table S5), read-out: MIC
  MIC: 0.2 µg/mL (≈ 0.372 µM)
[1]; Staphylococcus epidermidis, mean of MIC values against clinical MDR-SE isolates, read-out: mean MIC
  MIC: 1.76 µg/mL (≈ 3.27 µM)
[1]; Staphylococcus epidermidis, 81 clinical strains, concentration inhibiting growth of 50% clinical isolates
  MIC50: 1.6 µg/mL (≈ 2.97 µM)
[1]; Staphylococcus epidermidis, 81 clinical strains, concentration inhibiting growth of 90% of clinical isolates
  MIC90: 3.12 µg/mL (≈ 5.81 µM)
[1]; all reference and clinical MDR S. epidermidis strains
  category according to EUCAST clinical breakpoints for linezolid: within the susceptible category
[2]; 200 μM, 1 h, n = 3
  %hem (hemolytic activity): 0.54%
[2]; concentrations up to 200 μM
  lysis of erythrocytes: None of them caused lysis of erythrocytes
